Data from PubChem BioAssay (NCI).
“And” between values parts separate entries of the source, which are not always exact repeats. Identical values can stand only once.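 Tested at 5 concentrations; 48 h exposure; 96-well plates; endpoints linearly interpolated, else capped at highest concentration. GI50 is the concentration that inhibits growth by half. TGI marks complete inhibition of growth.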

Columns and labels:
Test in all cases: NCI-60 cell line screen, 48 h
PC-3 prostate = tested on: PC-3 prostate
SNB-19 CNS = tested on: SNB-19 CNS
NCI-H23 lung = tested on: NCI-H23 lung
HCT-15 colon = tested on: HCT-15 colon
KM12 colon = tested on: KM12 colon
SK-MEL-2 melanoma = tested on: SK-MEL-2 melanoma
SF-295 CNS = tested on: SF-295 CNS
OVCAR-8 ovarian = tested on: OVCAR-8 ovarian
BT-549 breast = tested on: BT-549 breast
NCI-H226 lung = tested on: NCI-H226 lung
HOP-62 NSCLC = tested on: HOP-62 NSCLC
EKVX NSCLC = tested on: EKVX NSCLC
TK-10 renal = tested on: TK-10 renal
786-0 renal = tested on: 786-0 renal
SK-OV-3 ovarian = tested on: SK-OV-3 ovarian
ACHN renal = tested on: ACHN renal
CAKI-1 renal = tested on: CAKI-1 renal
SR leukemia = tested on: SR leukemia
U251 CNS = tested on: U251 CNS
NCI/ADR-RES ovarian = tested on: NCI/ADR-RES ovarian
MCF7 breast = tested on: MCF7 breast
OVCAR-3 ovarian = tested on: OVCAR-3 ovarian
A549 NSCLC = tested on: A549 NSCLC
MDA-MB-231 breast = tested on: MDA-MB-231 breast
NCI-H460 lung = tested on: NCI-H460 lung
RXF 393 renal = tested on: RXF 393 renal
SK-MEL-28 melanoma = tested on: SK-MEL-28 melanoma
MALME-3M melanoma = tested on: MALME-3M melanoma
SF-268 CNS = tested on: SF-268 CNS
SW-620 colon = tested on: SW-620 colon
SN12C renal = tested on: SN12C renal
HL-60(TB) leukemia = tested on: HL-60(TB) leukemia
CCRF-CEM leukemia = tested on: CCRF-CEM leukemia
SF-539 CNS = tested on: SF-539 CNS
HS 578T breast = tested on: HS 578T breast
SK-MEL-5 melanoma = tested on: SK-MEL-5 melanoma
K-562 leukemia = tested on: K-562 leukemia
A498 renal = tested on: A498 renal
OVCAR-5 ovarian = tested on: OVCAR-5 ovarian
HT29 colon = tested on: HT29 colon
HCT-116 colon = tested on: HCT-116 colon
LOX IMVI melanoma = tested on: LOX IMVI melanoma
UACC-257 melanoma = tested on: UACC-257 melanoma
RPMI-8226 leukemia = tested on: RPMI-8226 leukemia
IGROV1 ovarian = tested on: IGROV1 ovarian
T-47D breast = tested on: T-47D breast
M14 melanoma = tested on: M14 melanoma
UACC-62 melanoma = tested on: UACC-62 melanoma
UO-31 renal = tested on: UO-31 renal
HOP-92 NSCLC = tested on: HOP-92 NSCLC
MDA-MB-435 = tested on: MDA-MB-435
COLO 205 colon = tested on: COLO 205 colon
SNB-75 CNS = tested on: SNB-75 CNS
DU-145 prostate = tested on: DU-145 prostate
NCI-H522 lung = tested on: NCI-H522 lung
MOLT-4 leukemia = tested on: MOLT-4 leukemia
OVCAR-4 ovarian = tested on: OVCAR-4 ovarian
HCC-2998 colon = tested on: HCC-2998 colon

CCS(=O)(=O)c1cccc(-c2cc(C(=O)NC3CCN(C)CC3)c(C)c3[nH]c4ncc(C)cc4c23)c1
GI50 (PC-3 prostate): 374 nM and 104 nM | TGI (PC-3 prostate): 5850 nM and 4710 nM | GI50 (SNB-19 CNS): 302 nM and 250 nM | TGI (SNB-19 CNS): > 10000 nM and 6670 nM | GI50 (NCI-H23 lung): 483 nM and 322 nM | TGI (NCI-H23 lung): 5230 nM and 3750 nM | GI50 (HCT-15 colon): 13600 nM | TGI (HCT-15 colon): > 10000 nM and 45800 nM | GI50 (KM12 colon): 95.4 nM and 47.8 nM | TGI (KM12 colon): 1510 nM and 1860 nM | GI50 (SK-MEL-2 melanoma): 694 nM and 673 nM | TGI (SK-MEL-2 melanoma): 3070 nM and 3380 nM | GI50 (SF-295 CNS): 1080 nM and 832 nM | TGI (SF-295 CNS): > 10000 nM and 5630 nM | GI50 (OVCAR-8 ovarian): 1580 nM and 855 nM | TGI (OVCAR-8 ovarian): > 10000 nM and 11100 nM | GI50 (BT-549 breast): 1750 nM and 875 nM | TGI (BT-549 breast): 5840 nM and 2200 nM | GI50 (NCI-H226 lung): 372 nM and 714 nM | TGI (NCI-H226 lung): 3830 nM and 5200 nM | GI50 (HOP-62 NSCLC): 645 nM and 266 nM | TGI (HOP-62 NSCLC): > 6560 nM and 2010 nM | GI50 (EKVX NSCLC): 1330 nM and 898 nM | TGI (EKVX NSCLC): > 10000 nM and 11000 nM | GI50 (TK-10 renal): 1710 nM and 1440 nM | TGI (TK-10 renal): > 8010 nM and 6700 nM | GI50 (786-0 renal): 1680 nM and 1320 nM | TGI (786-0 renal): > 8050 nM and 4700 nM | GI50 (SK-OV-3 ovarian): 624 nM and 771 nM | TGI (SK-OV-3 ovarian): 4310 nM and 7310 nM | GI50 (ACHN renal): 9870 nM and 2640 nM | TGI (ACHN renal): > 10000 nM and 10600 nM | GI50 (CAKI-1 renal): 1350 nM and 6410 nM | TGI (CAKI-1 renal): > 6290 nM and 36400 nM | GI50 (SR leukemia): 68.2 nM and < 24.6 nM | TGI (SR leukemia): 2140 nM and 1580 nM | GI50 (U251 CNS): 537 nM and 316 nM | TGI (U251 CNS): 5160 nM and 2350 nM | GI50 (NCI/ADR-RES ovarian): 44900 nM | TGI (NCI/ADR-RES ovarian): > 100000 nM | GI50 (MCF7 breast): 105 nM and 63.1 nM | TGI (MCF7 breast): 4270 nM and 5960 nM | GI50 (OVCAR-3 ovarian): 336 nM and 232 nM | TGI (OVCAR-3 ovarian): 2480 nM and 1410 nM | GI50 (A549 NSCLC): 490 nM and 169 nM | TGI (A549 NSCLC): 4120 nM and 3790 nM | GI50 (MDA-MB-231 breast): 232 nM and 196 nM | TGI (MDA-MB-231 breast): > 5150 nM and 4900 nM | GI50 (NCI-H460 lung): 201 nM and 84.3 nM | TGI (NCI-H460 lung): 4960 nM and 1640 nM | GI50 (RXF 393 renal): 957 nM and 512 nM | TGI (RXF 393 renal): 3110 nM and 1560 nM | GI50 (SK-MEL-28 melanoma): 834 nM and 566 nM | TGI (SK-MEL-28 melanoma): 6530 nM and 5090 nM | GI50 (MALME-3M melanoma): 843 nM and 571 nM | TGI (MALME-3M melanoma): 4130 nM and 3220 nM | GI50 (SF-268 CNS): 332 nM and 245 nM | TGI (SF-268 CNS): 2190 nM and 1100 nM | GI50 (SW-620 colon): 268 nM and 143 nM | TGI (SW-620 colon): > 10000 nM and 1850 nM | GI50 (SN12C renal): 283 nM and 272 nM | TGI (SN12C renal): 3880 nM and 11300 nM | GI50 (HL-60(TB) leukemia): 179 nM and 442 nM | TGI (HL-60(TB) leukemia): 4220 nM and 3970 nM | GI50 (CCRF-CEM leukemia): 101 nM and 82.2 nM | TGI (CCRF-CEM leukemia): > 10000 nM and 38100 nM | GI50 (SF-539 CNS): 329 nM and 239 nM | TGI (SF-539 CNS): 1920 nM and 1390 nM | GI50 (HS 578T breast): 275 nM and 109 nM | TGI (HS 578T breast): 2600 nM and 424 nM | GI50 (SK-MEL-5 melanoma): 2290 nM and 798 nM | TGI (SK-MEL-5 melanoma): > 9220 nM and 2650 nM | GI50 (K-562 leukemia): 210 nM and 90 nM | TGI (K-562 leukemia): > 10000 nM and 11000 nM | GI50 (A498 renal): 453 nM and 124 nM | TGI (A498 renal): 1650 nM and 790 nM | GI50 (OVCAR-5 ovarian): 463 nM and 340 nM | TGI (OVCAR-5 ovarian): > 9670 nM and 11400 nM | GI50 (HT29 colon): 372 nM and 236 nM | TGI (HT29 colon): > 8440 nM and 10300 nM | GI50 (HCT-116 colon): 128 nM and 78.8 nM | TGI (HCT-116 colon): 2660 nM and 5400 nM | GI50 (LOX IMVI melanoma): 168 nM and 160 nM | TGI (LOX IMVI melanoma): 1220 nM and 747 nM | GI50 (UACC-257 melanoma): 1260 nM and 562 nM | TGI (UACC-257 melanoma): 6790 nM and 4670 nM | GI50 (RPMI-8226 leukemia): 736 nM and 929 nM | TGI (RPMI-8226 leukemia): > 7510 nM and 9070 nM | GI50 (IGROV1 ovarian): 179 nM and 111 nM | TGI (IGROV1 ovarian): 1760 nM and 2550 nM | GI50 (T-47D breast): 277 nM and 204 nM | TGI (T-47D breast): 4120 nM and 3160 nM | GI50 (M14 melanoma): 1150 nM and 967 nM | TGI (M14 melanoma): > 8780 nM and 6730 nM | GI50 (UACC-62 melanoma): 452 nM and 372 nM | TGI (UACC-62 melanoma): 2130 nM and 2090 nM | GI50 (UO-31 renal): > 5300 nM and 6650 nM | TGI (UO-31 renal): > 10000 nM and 26400 nM | GI50 (HOP-92 NSCLC): 120 nM and 88.7 nM | TGI (HOP-92 NSCLC): 595 nM and 330 nM | GI50 (MDA-MB-435): 722 nM and 304 nM | TGI (MDA-MB-435): > 10000 nM and 4540 nM | GI50 (COLO 205 colon): 92.3 nM and 31.8 nM | GI50 (SNB-75 CNS): 101 nM and 80.4 nM | TGI (SNB-75 CNS): 459 nM and 264 nM | GI50 (DU-145 prostate): 1210 nM and 745 nM | TGI (DU-145 prostate): 3480 nM and 2350 nM | GI50 (NCI-H522 lung): 148 nM and 164 nM | TGI (NCI-H522 lung): 2270 nM and 1680 nM | GI50 (MOLT-4 leukemia): 316 nM and 237 nM | TGI (MOLT-4 leukemia): > 6380 nM and 3140 nM | GI50 (OVCAR-4 ovarian): 1040 nM and 249 nM | TGI (OVCAR-4 ovarian): > 7710 nM and 4390 nM | GI50 (HCC-2998 colon): 177 nM and 703 nM | TGI (HCC-2998 colon): 2140 nM and 4180 nM
